Experimental data reported in publication doi:10.1101/2020.06.11.145995v1 (biorxiv, 2020).
Like-named read-outs stand apart in the source and are kept apart here. Each block holds one molecule with its values, some of them ahead of it.

Experiments:
Assay in all cases: biochemical
NLK = NLK (Homo sapiens, UniProt Q9UBE8)
TIE2 = TIE2 (Homo sapiens, UniProt Q02763)
OSR1 = OSR1 (Homo sapiens, UniProt O95747)
TESK1 = TESK1 (Homo sapiens, UniProt Q15569)
RSK1 = RSK1 (Homo sapiens, UniProt Q15418)
PRP4 = PRP4 (Homo sapiens, UniProt Q13523)
PRKG1 = PRKG1 (Homo sapiens, UniProt Q13976)
SRC = SRC (Homo sapiens, UniProt P12931)
PIK3CA(H1047Y) = molecular target: PIK3CA(H1047Y (Homo sapiens, UniProt P42336, H1047Y))
PCTK1 = PCTK1 (Homo sapiens, UniProt Q00536)
Chain of PCTK1 (Q00536 whole entry): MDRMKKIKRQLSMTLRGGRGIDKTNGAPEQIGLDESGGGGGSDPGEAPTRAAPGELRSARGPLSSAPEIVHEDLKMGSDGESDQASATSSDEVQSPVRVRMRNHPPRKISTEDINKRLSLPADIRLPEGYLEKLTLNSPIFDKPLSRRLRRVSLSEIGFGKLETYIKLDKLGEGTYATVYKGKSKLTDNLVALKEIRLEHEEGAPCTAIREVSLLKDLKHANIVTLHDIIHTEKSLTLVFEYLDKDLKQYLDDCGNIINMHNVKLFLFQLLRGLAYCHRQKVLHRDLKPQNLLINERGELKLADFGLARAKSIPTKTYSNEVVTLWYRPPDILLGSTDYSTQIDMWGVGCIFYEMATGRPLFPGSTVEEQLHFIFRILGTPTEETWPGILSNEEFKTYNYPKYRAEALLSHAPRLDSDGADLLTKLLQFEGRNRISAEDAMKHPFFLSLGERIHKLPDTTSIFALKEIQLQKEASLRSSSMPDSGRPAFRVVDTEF

PIK3C2B = PIK3C2B (Homo sapiens, UniProt O00750)
PLK4 = PLK4 (Homo sapiens, UniProt O00444)
p38-alpha = p38-alpha (Homo sapiens, UniProt Q16539)
YES = YES (Homo sapiens, UniProt P07947)
Chain of YES (P07947 whole entry): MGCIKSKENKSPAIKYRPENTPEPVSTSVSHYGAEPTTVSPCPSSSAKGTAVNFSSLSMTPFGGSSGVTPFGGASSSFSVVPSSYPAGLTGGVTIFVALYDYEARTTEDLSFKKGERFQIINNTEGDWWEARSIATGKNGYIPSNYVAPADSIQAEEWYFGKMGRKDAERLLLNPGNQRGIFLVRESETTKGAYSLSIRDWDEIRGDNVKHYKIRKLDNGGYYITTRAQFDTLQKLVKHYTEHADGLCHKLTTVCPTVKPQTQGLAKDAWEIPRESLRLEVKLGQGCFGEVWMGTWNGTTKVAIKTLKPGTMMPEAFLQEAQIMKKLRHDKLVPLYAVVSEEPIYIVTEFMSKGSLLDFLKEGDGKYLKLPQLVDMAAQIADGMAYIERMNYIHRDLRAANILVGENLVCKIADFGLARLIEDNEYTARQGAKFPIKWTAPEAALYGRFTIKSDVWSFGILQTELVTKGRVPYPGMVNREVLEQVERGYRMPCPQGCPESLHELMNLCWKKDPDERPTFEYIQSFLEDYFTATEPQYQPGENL

WEE2 = WEE2 (Homo sapiens, UniProt P0C1S8)
PRKCH = PRKCH (Homo sapiens, UniProt P24723)
NIM1 = NIM1 (Homo sapiens, UniProt Q8IY84)
p38-gamma = p38-gamma (Homo sapiens, UniProt P53778)
TYK2 = TYK2 (Homo sapiens, UniProt P29597)
Chain of TYK2 (P29597 whole entry): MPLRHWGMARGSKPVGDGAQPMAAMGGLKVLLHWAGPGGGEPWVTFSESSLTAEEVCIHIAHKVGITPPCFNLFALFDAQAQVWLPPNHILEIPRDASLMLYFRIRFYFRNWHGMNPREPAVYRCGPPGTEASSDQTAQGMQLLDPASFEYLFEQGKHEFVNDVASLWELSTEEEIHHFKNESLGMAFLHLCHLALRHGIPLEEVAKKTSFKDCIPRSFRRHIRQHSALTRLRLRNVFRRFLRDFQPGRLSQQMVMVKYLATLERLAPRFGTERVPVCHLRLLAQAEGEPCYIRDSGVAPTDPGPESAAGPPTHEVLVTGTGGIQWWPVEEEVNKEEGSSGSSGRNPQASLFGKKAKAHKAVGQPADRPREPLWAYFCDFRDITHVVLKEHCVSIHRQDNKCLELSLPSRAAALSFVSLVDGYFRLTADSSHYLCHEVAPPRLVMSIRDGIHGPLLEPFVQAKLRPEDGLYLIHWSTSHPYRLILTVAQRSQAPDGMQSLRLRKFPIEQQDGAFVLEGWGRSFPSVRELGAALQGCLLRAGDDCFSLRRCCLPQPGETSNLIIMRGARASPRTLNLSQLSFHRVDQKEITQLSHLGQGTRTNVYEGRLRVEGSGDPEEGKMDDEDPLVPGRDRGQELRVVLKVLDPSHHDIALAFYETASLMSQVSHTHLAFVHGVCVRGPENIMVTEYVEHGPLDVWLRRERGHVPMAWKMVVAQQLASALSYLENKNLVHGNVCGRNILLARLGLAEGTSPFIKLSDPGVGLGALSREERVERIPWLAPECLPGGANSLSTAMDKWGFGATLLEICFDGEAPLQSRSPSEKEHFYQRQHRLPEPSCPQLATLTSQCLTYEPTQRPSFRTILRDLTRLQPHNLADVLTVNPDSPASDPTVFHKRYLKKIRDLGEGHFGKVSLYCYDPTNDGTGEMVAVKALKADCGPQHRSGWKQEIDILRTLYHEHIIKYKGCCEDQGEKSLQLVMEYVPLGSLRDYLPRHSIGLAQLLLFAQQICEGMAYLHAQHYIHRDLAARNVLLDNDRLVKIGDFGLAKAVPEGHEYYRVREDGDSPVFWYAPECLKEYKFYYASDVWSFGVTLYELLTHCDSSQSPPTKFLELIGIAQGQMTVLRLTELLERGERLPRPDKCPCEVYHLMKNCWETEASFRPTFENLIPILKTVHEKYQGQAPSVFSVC

SGK3 = SGK3 (Homo sapiens, UniProt Q96BR1)
RIPK4 = RIPK4 (Homo sapiens, UniProt P57078)
NDR2 = NDR2 (Homo sapiens, UniProt Q9Y2H1)
PHKG1 = PHKG1 (Homo sapiens, UniProt Q16816)
SIK2 = SIK2 (Homo sapiens, UniProt Q9H0K1)
ROCK2 = ROCK2 (Homo sapiens, UniProt O75116)
Chain of ROCK2 (O75116 whole entry): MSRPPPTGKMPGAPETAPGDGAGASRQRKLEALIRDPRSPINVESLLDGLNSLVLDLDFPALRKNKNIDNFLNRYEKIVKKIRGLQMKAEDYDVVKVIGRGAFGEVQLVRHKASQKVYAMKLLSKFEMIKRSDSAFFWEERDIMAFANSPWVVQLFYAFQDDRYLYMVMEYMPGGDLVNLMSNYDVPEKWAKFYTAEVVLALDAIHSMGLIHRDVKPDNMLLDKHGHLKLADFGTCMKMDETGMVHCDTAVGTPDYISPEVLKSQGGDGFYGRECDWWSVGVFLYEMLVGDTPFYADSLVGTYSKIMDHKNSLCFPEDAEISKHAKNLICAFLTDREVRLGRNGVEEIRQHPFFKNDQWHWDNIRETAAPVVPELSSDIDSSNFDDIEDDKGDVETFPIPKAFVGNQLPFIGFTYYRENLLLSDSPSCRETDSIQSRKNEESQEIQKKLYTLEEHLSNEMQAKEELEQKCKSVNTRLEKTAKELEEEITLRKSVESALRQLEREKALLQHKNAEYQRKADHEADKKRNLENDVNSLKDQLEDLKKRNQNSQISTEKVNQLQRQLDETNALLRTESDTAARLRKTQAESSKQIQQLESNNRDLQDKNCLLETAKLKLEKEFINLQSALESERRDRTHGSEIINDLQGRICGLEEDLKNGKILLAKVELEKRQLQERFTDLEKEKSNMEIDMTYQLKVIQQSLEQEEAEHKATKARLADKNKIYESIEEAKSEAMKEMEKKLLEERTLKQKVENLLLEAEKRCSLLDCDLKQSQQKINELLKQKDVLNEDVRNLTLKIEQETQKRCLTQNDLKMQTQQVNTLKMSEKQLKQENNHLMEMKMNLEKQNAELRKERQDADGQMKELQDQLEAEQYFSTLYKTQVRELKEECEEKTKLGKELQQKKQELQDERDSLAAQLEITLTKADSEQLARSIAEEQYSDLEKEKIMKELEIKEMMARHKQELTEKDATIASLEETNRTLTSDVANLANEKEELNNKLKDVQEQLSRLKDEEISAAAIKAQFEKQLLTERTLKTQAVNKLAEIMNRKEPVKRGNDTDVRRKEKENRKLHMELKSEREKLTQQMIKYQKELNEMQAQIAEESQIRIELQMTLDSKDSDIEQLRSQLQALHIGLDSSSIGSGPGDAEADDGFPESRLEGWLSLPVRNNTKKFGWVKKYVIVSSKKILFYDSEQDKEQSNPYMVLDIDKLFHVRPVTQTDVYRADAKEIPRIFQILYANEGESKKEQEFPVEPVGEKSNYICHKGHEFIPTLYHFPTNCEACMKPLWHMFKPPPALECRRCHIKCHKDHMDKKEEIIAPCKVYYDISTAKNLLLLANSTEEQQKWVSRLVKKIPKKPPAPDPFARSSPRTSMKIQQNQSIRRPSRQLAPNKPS

STK36 = STK36 (Homo sapiens, UniProt Q9NRP7)
PIK3C2G = PIK3C2G (Homo sapiens, UniProt O75747)
PIK3CA = PIK3CA (Homo sapiens, UniProt P42336)
ROS1 = ROS1 (Homo sapiens, UniProt P08922)
[1] = read-out: CPT-1-70-1 (1μM) % control
[2] = read-out: HYJ-2-002-1 (1μM) % control

Chain of RSK1 (Q15418 whole entry): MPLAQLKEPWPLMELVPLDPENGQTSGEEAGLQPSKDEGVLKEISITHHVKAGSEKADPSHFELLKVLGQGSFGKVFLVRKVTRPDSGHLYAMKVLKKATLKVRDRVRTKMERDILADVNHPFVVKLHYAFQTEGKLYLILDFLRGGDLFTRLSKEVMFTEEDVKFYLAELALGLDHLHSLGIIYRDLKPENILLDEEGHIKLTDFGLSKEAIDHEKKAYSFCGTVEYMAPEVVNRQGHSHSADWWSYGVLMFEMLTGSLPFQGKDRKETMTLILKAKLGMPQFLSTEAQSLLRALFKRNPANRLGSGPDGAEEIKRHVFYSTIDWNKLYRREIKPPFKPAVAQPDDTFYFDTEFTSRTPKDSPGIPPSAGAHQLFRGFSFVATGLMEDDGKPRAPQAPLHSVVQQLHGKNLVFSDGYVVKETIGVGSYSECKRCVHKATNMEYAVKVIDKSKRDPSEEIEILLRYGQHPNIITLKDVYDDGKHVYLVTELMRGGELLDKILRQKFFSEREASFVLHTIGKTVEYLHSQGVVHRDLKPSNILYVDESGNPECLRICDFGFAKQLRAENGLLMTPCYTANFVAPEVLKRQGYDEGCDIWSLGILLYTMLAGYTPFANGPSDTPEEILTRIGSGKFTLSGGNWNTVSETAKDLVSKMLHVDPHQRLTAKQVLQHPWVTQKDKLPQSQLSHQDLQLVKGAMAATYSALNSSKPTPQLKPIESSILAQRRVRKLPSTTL
Chain of OSR1 (O95747 whole entry): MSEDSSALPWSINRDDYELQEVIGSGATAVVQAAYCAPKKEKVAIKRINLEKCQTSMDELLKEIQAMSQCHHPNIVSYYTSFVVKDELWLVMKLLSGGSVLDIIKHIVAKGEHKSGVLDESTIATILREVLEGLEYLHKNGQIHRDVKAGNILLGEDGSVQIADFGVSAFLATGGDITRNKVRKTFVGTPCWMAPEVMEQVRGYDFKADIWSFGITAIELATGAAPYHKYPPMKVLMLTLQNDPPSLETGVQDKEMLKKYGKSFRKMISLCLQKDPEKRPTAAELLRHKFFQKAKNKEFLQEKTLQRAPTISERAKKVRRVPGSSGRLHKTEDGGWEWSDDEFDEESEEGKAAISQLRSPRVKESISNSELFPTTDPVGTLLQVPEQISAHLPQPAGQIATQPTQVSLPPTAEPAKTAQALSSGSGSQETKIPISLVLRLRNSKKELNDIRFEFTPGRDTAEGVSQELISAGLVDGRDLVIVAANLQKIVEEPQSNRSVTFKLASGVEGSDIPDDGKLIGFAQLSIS

SMILES: CN1CCN(c2ccc(Nc3nc(Oc4ccc(NC(=O)CCl)cc4)c4cc[nH]c4n3)cc2)CC1 [CPT1-70-1]
- remaining activity at 1 µM (NLK; [1]): 100%
- remaining activity at 1 µM (TIE2; [1]): 100%
- remaining activity at 1 µM (OSR1; [1]): 96%
- remaining activity at 1 µM (TESK1; [1]): 83%
- remaining activity at 1 µM (RSK1; read-out: CPT-1-70-1 (1μM) % control, Kin.Dom.1-N-terminal): 72%
- remaining activity at 1 µM (RSK1; read-out: CPT-1-70-1 (1μM) % control, Kin.Dom.2-C-terminal): 100%
- remaining activity at 1 µM (PRP4; [1]): 90%
- remaining activity at 1 µM (PRKG1; [1]): 100%
- remaining activity at 1 µM (SRC; [1]): 6.6%
- remaining activity at 1 µM (PIK3CA(H1047Y); [1]): 100%
- remaining activity at 1 µM (PCTK1; [1]): 100%
- remaining activity at 1 µM (PIK3C2B; [1]): 100%
- remaining activity at 1 µM (PLK4; [1]): 23%
- remaining activity at 1 µM (p38-alpha; [1]): 100%
- remaining activity at 1 µM (YES; [1]): 17%
- remaining activity at 1 µM (WEE2; [1]): 100%
- remaining activity at 1 µM (PRKCH; [1]): 100%
- remaining activity at 1 µM (NIM1; [1]): 100%
- remaining activity at 1 µM (p38-gamma; [1]): 100%
- remaining activity at 1 µM (TYK2; read-out: CPT-1-70-1 (1μM) % control, JH1 domain-catalytic): 7.4%
- remaining activity at 1 µM (TYK2; read-out: CPT-1-70-1 (1μM) % control, JH2 domain-pseudokinase): 68%
- remaining activity at 1 µM (SGK3; [1]): 74%
- remaining activity at 1 µM (RIPK4; [1]): 100%
- remaining activity at 1 µM (NDR2; [1]): 61%
- remaining activity at 1 µM (PHKG1; [1]): 100%
- remaining activity at 1 µM (SIK2; [1]): 57%
- remaining activity at 1 µM (ROCK2; [1]): 26%
- remaining activity at 1 µM (STK36; [1]): 78%
- remaining activity at 1 µM (PIK3C2G; [1]): 100%
- remaining activity at 1 µM (PIK3CA; [1]): 100%
- remaining activity at 1 µM (ROS1; [1]): 100%

- remaining activity at 1 µM (NLK; [2]): 28%
- remaining activity at 1 µM (TIE2; [2]): 0.15%
- remaining activity at 1 µM (OSR1; [2]): 93%
- remaining activity at 1 µM (TESK1; [2]): 81%
- remaining activity at 1 µM (RSK1; read-out: HYJ-2-002-1 (1μM) % control, Kin.Dom.1-N-terminal): 96%
- remaining activity at 1 µM (RSK1; read-out: HYJ-2-002-1 (1μM) % control, Kin.Dom.2-C-terminal): 61%
- remaining activity at 1 µM (PRP4; [2]): 100%
- remaining activity at 1 µM (PRKG1; [2]): 100%
- remaining activity at 1 µM (SRC; [2]): 0.2%
- remaining activity at 1 µM (PIK3CA(H1047Y); [2]): 100%
- remaining activity at 1 µM (PCTK1; [2]): 100%
- remaining activity at 1 µM (PIK3C2B; [2]): 100%
- remaining activity at 1 µM (PLK4; [2]): 100%
- remaining activity at 1 µM (p38-alpha; [2]): 0.25%
- remaining activity at 1 µM (YES; [2]): 0.55%
- remaining activity at 1 µM (WEE2; [2]): 21%
- remaining activity at 1 µM (PRKCH; [2]): 100%
- remaining activity at 1 µM (NIM1; [2]): 100%
- remaining activity at 1 µM (p38-gamma; [2]): 54%
- remaining activity at 1 µM (TYK2; read-out: HYJ-2-002-1 (1μM) % control, JH1 domain-catalytic): 53%
- remaining activity at 1 µM (TYK2; read-out: HYJ-2-002-1 (1μM) % control, JH2 domain-pseudokinase): 100%
- remaining activity at 1 µM (SGK3; [2]): 100%
- remaining activity at 1 µM (RIPK4; [2]): 100%
- remaining activity at 1 µM (NDR2; [2]): 100%
- remaining activity at 1 µM (PHKG1; [2]): 100%
- remaining activity at 1 µM (SIK2; [2]): 34%
- remaining activity at 1 µM (ROCK2; [2]): 94%
- remaining activity at 1 µM (STK36; [2]): 2.2%
- remaining activity at 1 µM (PIK3C2G; [2]): 100%
- remaining activity at 1 µM (PIK3CA; [2]): 100%
- remaining activity at 1 µM (ROS1; [2]): 100%
SMILES: CCN1CCN(Cc2ccc(NC(=O)c3ccc(C)c(CCc4cnc5[nH]ccc5c4OC)c3)cc2C(F)(F)F)CC1 [HYJ-2-002-1]
